Results from patent US12582626B2, “Methods and compositions for treating cancer” (The Wistar Institute of Anatomy and Biology, priority 2016, dated 2026).

Assays:
activated CD8+ T cells = assay: In vitro stimulation of CD8+ T cells and drug treatments (flow cytometry, intracellular cytokine staining); assay type: cell-based, mouse
Protocol: Enriched CD8+ T cells were activated for 4 days in 6-well plates pre-coated with antibodies to CD3 (5 μg/ml) and CD28 (5 μg/mL) (BD Bioscience). For some samples, cells were transferred for the last 16 hours to a hypoxia chamber. To study the impact of hypoxia on relatively resting CD8+ T cells, enriched CD8+ T cells were stimulated for 48 hours under normoxia. Cells were then removed from the plates, washed and replated in fresh medium with 100 U/ml human IL-2 for 96 hours, followed by culture in normoxia or hypoxia with IL-2 for another 36 hours before analysis. Cells were cultured in Roswell Park Memorial Institute (RPMI) medium without Glu (Life Technologies) supplemented with Glu (10 mM) or Gal (10 mM), 10% dialyzed FBS (Life Technologies), 20 mM HEPES, 2 mM Glutamax, 1 mM sodium pyruvate, 0.05 mM 2-mercaptoethanol and 1% penicillin-streptomycin. Hypoxia experiments were performed in a Thermo Napco series 8000WJ CO2 incubator equipped with nitrogen tank for O2 replacement. O2 level was kept at 1% during CD8+ T cells hypoxia culture for time periods indicated in each assay. In all assays cell viability was assessed before staining. […] Drugs and corresponding vehicle controls were added as follows: 2-deoxy-D-glucose (2-DG, 2 mM, Sigma) or Fenofibrate (FF, 50 μM, Sigma) for the entire culture period; Etomoxir (Eto, 200 μM, Sigma) for the last 48 hours. DMSO concentrations were kept below 0.2% for all culture conditions.
CD8^+ T cells from spleens of naive C57Bl/6 mice were purified by negative selection using magnetic beads (MACS, STEMCELL Technologies). Enriched CD8^+ T cells were activated for 4 days in 6-well plates pre-coated with antibodies to CD3 (5 μg/ml) and CD28 (5 μg/mL) (BD Bioscience). For some samples, cells were transferred for the last 16 hours to a hypoxia chamber. To study the impact of hypoxia on resting CD8^+ T cells, purified enriched CD8^+ T cells were stimulated for 48 hours under normoxia. Cells were then washed off the plates and replated in fresh medium with 100 U/ml human IL-2 for 96 hours, followed by culture in normoxia or hypoxia with IL-2 for another 36 hours before analysis. Cells were cultured in Roswell Park Memorial Institute (RPMI) medium without Glu (Life Technologies) supplemented with Glu (10 mM) or Gal (10 mM), 10% dialyzed FBS (Life Technologies), 20 mM HEPES, 2 mM Glutamax, 1 mM sodium pyruvate, 0.05 mM 2-mercaptoethanol and 1% penicillin-streptomycin. Hypoxia experiments were performed in a Thermo Napco series 8000WJ CO2 incubator equipped with nitrogen tank for O2 replacement. O2 level was kept at 1% during CD8^+ T cells hypoxia culture for time periods indicated in each assay. Drugs and corresponding vehicle controls were added as follows: 2-deoxy-D-glucose (2-DG, 2 mM, Sigma) or Fenofibrate (FF, 50 μM, Sigma) for the entire culture period; Etomoxir (Eto, 200 μM, Sigma), Amidepsine A (AmA, 20 μM, Santa Cruz), or Orlistat (OS, 100 μM, Sigma) for the last 48 hours. DMSO concentrations were kept below 0.2% for all culture conditions.
For mitochondrial metabolic markers analysis, cells were stained with Mitosox Red (5 μM, MROS) and DioC6 (40 nM, MMP) (Life Technologies) at 37° C. for 30 minutes under either normoxia or hypoxia (for in vitro samples cultured prior to staining under hypoxia). For fatty acid uptake experiments, cells stimulated under different conditions in vitro or isolated from spleen and tumors of mice bearing 2 weeks or 1 month-old tumors were immediately incubated with 1 μM BODIPY FL C16 (Life tech) for 30 mins at 37° C. Cells were washed twice with cold PBS before surface staining. For Cpt1a staining, cells were stained for surface markers first followed by permeabilization with transcription factor buffer set (BD Pharmingen, San Diego, CA). Cells were stained with anti-Cpt1a antibody or mouse IgG2b isotype control antibody (abcam) at 5 μg/ml in 1× permwash for 45 mins at 4° C. […]

CD8+ T cells = assay: Extracellular flux analysis (OCR, ECAR) of stimulated CD8+ T cells; assay type: cell-based, mouse; settings: for Basal OCR: OS 100 μM or AmA 20 μM, Glu or Gal media, short-term hypoxia
Protocol: OCR and ECAR for CD8^+ T cells stimulated under different conditions were measured with XF24 and XF96 Extracellular Flux Analyzers (Seahorse Bioscience) following the manufacturer's instructions. Hypoxia samples were prepared in a hypoxia chamber under 1% O2. Dead cells were removed by dead cell removal kit using MACS and live cells were pre-incubated with 100 μM cobalt chloride before being removed from the hypoxia chamber and entered into the Seahorse analyzer. In experiments to determine the contribution of fatty acid oxidation (FAO) to OCR, 200 μM ETO was added 15 minutes before the Seahorse analysis. Briefly after repeated measures of basal respiration and lactate production, 1 μM OM was added to measure ATP leakage by OCR and glycolytic capacity by ECAR. 1.5 μM FCCP was then added to measure maximal respiration by OCR followed by addition of 100 nM Rotenone and 1 μM Antimycin A (AmA) to determine spare respiratory capacity by OCR and then 100 mM 2-DG to determine glycolytic reserve by ECAR.

[1] = system: vaccine-induced CD8+ T cells; assay: FF treatment of vaccinated donor mice, splenic CD8+ T cells analysed before transfer; assay type: in vivo, mouse; settings: samples incubated with Eto
Protocol: For in vivo treatment, fenofibrate (FF; at 100 mg/kg/day, Sigma) was first diluted in dimethylsulfoxide (DMSO) and then further diluted in PBS and given by oral gavage daily for 3 weeks. Control mice received diluent at the same volume. For adoptive transfer experiments, 1×10^7 in vitro activated CD8^+ T cells transduced with lentivectors or splenocytes from vaccinated mice treated with drugs and containing 5×10^4 Trp-1455 tetramer^+CD8^+ T cells per dose were injected intravenously into recipient mice. For FF/control treated splenocytes or wild type/PPAR-α KO splenocytes co-transfer experiments, splenocytes containing 10^5 Trp-1455 tetramer^+CD8^+ T cells from each group were mixed and transferred into CD90.1^+ recipient mice intravenously.
To assess how increased FA catabolism affects CD8+TIL functions, we vaccinated CD90.2+ mice congenic for CD45, and treated them for 3 weeks daily with FF (CD45.1 mice) or diluent (CD45.2 mice). Splenocytes from these mice were mixed at a 1:1 ratio of Trp-1-specific CD8+ T cells from the 2 donors and transferred into CD90.1+ recipient mice, which had been challenged with tumor cells and vaccinated 3 days later. Cells were transferred 2 days after vaccination (FIG. 6A).

Structure (SMILES): CCOC(=O)[C@@]1(CCCCCCOc2ccc(Cl)cc2)CO1 [Eto, etomoxir]
- functions and polyfunctionality of CD8+ T cells (activated CD8+ T cells; cultured with limited access to Glu and O2): decreases
- PD-1 expression (activated CD8+ T cells; under hypoxia, FF 50 μM or Eto 200 μM): decreases
- OCR (CD8+ T cells; Eto 200 μM, CD8+ T cells stimulated in Glu or Gal media): decreases
- FF-enhanced OCR of splenocytes [1]: blocked

Structure (SMILES): CCCCCCCCCCC[C@@H](C[C@@H]1OC(=O)[C@H]1CCCCCC)OC(=O)[C@H](CC(C)C)NC=O [OS, Orlistat]
- PD-1 expression (activated CD8+ T cells; under hypoxia, OS, regardless of other culture conditions): decreases
- Basal OCR (CD8+ T cells): decreases

Structure (SMILES): O=CC[C@@H](O)[C@H](O)[C@H](O)CO [2-DG, 2-deoxy-D-glucose]
- PD-1 expression (activated CD8+ T cells; 2-DG compared to cells grown with Glu): more
- O2 consumption rate (OCR) (CD8+ T cells; Glu medium with 2-DG 2 mM): decreases
- OCR/ECAR ratio (CD8+ T cells; Glu medium with 2-DG 2 mM): augments
- extracellular acidification rate (ECAR) (CD8+ T cells; Glu medium with 2-DG 2 mM): declines

Structure (SMILES): COc1cc(C)c(C(=O)Oc2cc(C)c(C(=O)Oc3cc(C)c(C(=O)NC(C)C(=O)O)c(O)c3)c(O)c2)c(OC)c1 (stereo not shown) [AmA, Amidepsine A]
- functions of T cells (activated CD8+ T cells; Gal media and hypoxia): decrease functions
- PD-1 expression (activated CD8+ T cells; under hypoxia, AmA, Gal medium): decreases
- Basal OCR (CD8+ T cells): decreases
